Laboratory results reported in patent US6555523B1, “Use of cirsiliol and derivatives to treat infections” (priority 1999, dated 2003).
Values after ≈ are worked out from the molar mass of the structure shown. Values joined by “and” are separate entries in the source; they are usually repeats but may differ in a detail not shown here. Equal values may be shown once.

Tests used:
[1] = Human HCV clinical trial, one patient (HCV and HIV infected), naringin 4 g orally three times daily: bloodwork and urine values; type: in vivo; conditions: for Basophils: Day 0: 0; for Basophils / Eosinophils: ref. 0-5%; for Creatinine: Day 0: 0.5, ref. 0.5-1.2; for Eosinophils: Day 0: 1; for WBC: Day 0: 3.2, ref. 4-11 × 10^3; for RBC: Day 0: 4.7, ref. 3.9-5.1 × 10^6; for Monocytes: Day 0: 5, ref. 0-10%; for Hemoglobin: Day 0: 14, ref. 13.0-17.0; for Lymphocytes: Day 0: 29, ref. 15-50%; for MCH: Day 0: 30; for MCHC: Day 0: 34, ref. 32-36%; for Hematocrit: Day 0: 41.7, ref. 36-46%; for Glucose: Day 0: 76; for SGOT: Day 0: 83; for Platelet Count: Day 0: 96, ref. 150-400 × 10^3; for SGPT: Day 0: 112; for Specific Gravity: ref. 1.005-1.035; for pH: ref. 4.5-7.5; for Acetone, Urine / Bilirubin / Glucose, Urine / Leukocyte esterase / Nitrite / Occult Blood / Protein, Urine: ref. Negative
Procedure: (§1) Human HCV clinical trial. A human patient suffering from hepatitis C virus was treated according to the following regimen: initial dosing beginning on Day 0 (see Table C), three times daily, the patient ingested 4 g of naringin orally, and then drank hot tea; in later days, the patient ingested, three times daily, 4 g of naringin mixed in hot tea. This patient also suffered from HIV infection.
(§2) The tables below, labeled part 1 through part 4, show data from this patients' bloodwork on Day 0 (when treatment according to this invention was initiated), Day 3 (3 days after Day 0), Day 6 (6 days after Day 0) and Day 9 (9 days after Day 0). In addition, the tables include data from this patients' bloodwork 72 days before Day 0 (“Day −72”).

[2] = tested on: parainfluenza HA-1; assay: CPE-inhibition (microscopic) assay, Protocol A2; type: cell-based, parainfluenza virus; conditions: HEp-2, cell Hep2 (cell blank for 3-(4′-bromophenyl) coumarin)
[3] = in vitro; conditions: human
[4] = tested on: MDBK cells; conditions: cattle
Procedure: As a comparison, similar tests were conducted using ribavirin.

[5] = tested on: T, gondii RH; assay: In-vitro anti Toxoplasma gondii activity in HFF, Protocol C; type: cell-based
Procedure: Protocol C—In-vitro testing of anti Toxoplasma gondii activity of Cirsiliol and Naringin. The compounds were tested in an in vitro cell culture assay utilizing human fibroblasts (HFF line) as the host cell. RH strain Toxoplasma gondii that has been transfected with β-galactosidase as a marker for quantitative detection of parasite number (RH Bgal), was used as the challenge organism. The compounds ere dissolved, and then diluted in cell culture medium at least 100 fold for the assays. Controls containing the maximum concentration of solvent used in the assay were run with each test. The active drugs were added and the monolayers were infected immediately at the beginning of each test. Extracellular T. gondii were removed by rinsing the monolayer, and infected host cells remained in contact with the cells for the entire test period. Each test was terminated when at least four parasite doublings could be visually identified in the control monolayers, and parasite numbers were quantitated by standard colorimetric assay for bet galactosidase activity with optical density at 550 nm as the readout. The optical density in this assay has a direct and linear correlation with parasite numbers over a 5-log parasite concentration. Toxicity in the host cells was determined by inspection for cytopathic effects and visual evaluation of cell growth.

[6] = tested on: hepatitis C virus; assay: Human HCV clinical trial, one patient (HCV and HIV infected), naringin 4 g orally three times daily: hepatitis C RNA; type: in vivo; conditions: for Hepatitis C by PCR log 10: Day 0: 6.5; for Hepatitis C RNA ultraquant: Day 0: 2,871,300, ref. <200
Procedure: as §1, §2

[7] = Drug cytotoxicity by XTT in monocyte-macrophages, Protocol D2; type: cell-based; conditions: human; macrophage; D2; naringin solubilised in 35% EtOH; read-out: TC50
Procedure: Protocol D2—Assay in fresh human monocyte-macrophages. […] The cells are placed in a 96-well microtiter plate at 37° C. for 2 hours. Non-adherent cells are removed by vigorously washing six times. […] The cultures are carefully monitored for confluency during this incubation period. Infection of the cells is performed with monocytotropic HIV-1 isolates. […] Monocytemacrophage monolayers are infected at a multiplicity of infection (“MOI”) of 0.1.
(§3) At 2 days post-infection, the medium is decanted and the cultures washed twice with complete medium in order to remove excess virus. Fresh medium alone or medium containing the appropriate concentration of drug is added and incubation continued for an additional five days. XTT staining for cytotoxicity and HIV p24 ELISA assays for production of p24 core antigen are performed on Day 7 post infection. This is performed according the ELISA kit assay manufacturers recommendations. Control curves are generated in each assay to accurately quantitate the amount of capsid protein in each sample. Data is obtained by spectrophotometric analysis at 450 nm using a Molecular Devices Vmax plate reader. P24 concentrations are calculated form the optical density values by use of the Molecular Device software package Soft Max.

[8] = tested on: Bovine Viral Diarrhea Virus; assay: Plaque formation by Bovine Viral Diarrhea Virus in MDBK cultures; type: cell-based, bovine viral diarrhea virus (BVDV); conditions: for Number of plaques: Tests 1-3, control 68; for % Reduction: plaques
Procedure: HCV in vitro assays. No well-accepted model exists for HCV and new compounds for use in the treatment of HCV are frequently tested for activity against bovine viral diarrhea virus (BVDV), a virus which is related to HCV.
A representative compound according to the present invention, naringin (i.e., 7-neohesperidoside, 5, 4′ dihydroxyflavanone) was tested for anti-BVDV activity in MDBK cells.

[9] = tested on: HIV Ba-L; assay: Anti-HIV assay in fresh human monocyte-macrophages (p24 ELISA), Protocol D2; type: cell-based; conditions: Human immunodeficiency virus 1, BAL, Macrophage
Procedure: Protocol D2—Assay in fresh human monocyte-macrophages. […] The cells are placed in a 96-well microtiter plate at 37° C. for 2 hours. Non-adherent cells are removed by vigorously washing six times. […] The cultures are carefully monitored for confluency during this incubation period. Infection of the cells is performed with monocytotropic HIV-1 isolates. High titer pools of each of these viruses are harvested from infected cultures of peripheral blood adherent cells and frozen in 1.0 ml aliquots at −80° C. Monocytemacrophage monolayers are infected at a multiplicity of infection (“MOI”) of 0.1.
as §3
Most of the values were based on average values that were obtained from duplicate or triplicate assay wells.

C[C@@H]1O[C@@H](O[C@H]2[C@H](Oc3cc(O)c4c(c3)O[C@H](c3ccc(O)cc3)CC4=O)O[C@H](CO)[C@@H](O)[C@@H]2O)[C@H](O)[C@H](O)[C@H]1O [Naringin, 7-neohesperidoside, 5, 4′ dihydroxyflavanone]
Appearance ([1]; Day 3): Clear | Color ([1]; Day 3): Yellow | Basophils ([1]; Day 3): 1% | Creatinine ([1]; Day 3): 0.5 mg/dL | Eosinophils ([1]; Day 3): 0% | WBC ([1]; Day 3): 3.3 × 10^3 /mm^3 | RBC ([1]; Day 3): 4.71 × 10^6 /mm^3 | Monocytes ([1]; Day 3): 10% | Hemoglobin ([1]; Day 3): 13.9 g/dL | Lymphocytes ([1]; Day 3): 25% | MCH ([1]; Day 3): 30 picograms | MCHC ([1]; Day 3): 34% | Hematocrit ([1]; Day 3): 40.5% | Glucose ([1]; Day 3): 98 mg/dL | SGOT ([1]; Day 3): 62 u/L | Platelet Count ([1]; Day 3): 104 × 10^3 /mm^3 | SGPT ([1]; Day 3): 102 u/L | Specific Gravity ([1]; Day 3): 1.024 | pH ([1]; Day 3): 5 | Acetone, Urine ([1]; Day 3): Negative | Bilirubin ([1]; Day 3): Negative | Glucose, Urine ([1]; Day 3): Negative | Leukocyte esterase ([1]; Day 3): Negative | Nitrite ([1]; Day 3): Negative | Occult Blood ([1]; Day 3): Negative | Protein, Urine ([1]; Day 3): Negative | Appearance ([1]; Day 6): Clear | Basophils ([1]; Day 6): 1% | Creatinine ([1]; Day 6): 0.5 mg/dL | Eosinophils ([1]; Day 6): 1% | WBC ([1]; Day 6): 3.4 × 10^3 /mm^3 | RBC ([1]; Day 6): 4.6 × 10^6 /mm^3 | Monocytes ([1]; Day 6): 6% | Hemoglobin ([1]; Day 6): 13.7 g/dL | Lymphocytes ([1]; Day 6): 28% | MCH ([1]; Day 6): 30 picograms | MCHC ([1]; Day 6): 34% | Hematocrit ([1]; Day 6): 40.1% | Glucose ([1]; Day 6): 93 mg/dL | SGOT ([1]; Day 6): 38 u/L | Platelet Count ([1]; Day 6): 112 × 10^3 /mm^3 | SGPT ([1]; Day 6): 62 u/L | Specific Gravity ([1]; Day 6): 1.017 | pH ([1]; Day 6): 6 | Acetone, Urine ([1]; Day 6): Negative | Bilirubin ([1]; Day 6): Negative | Glucose, Urine ([1]; Day 6): Negative | Leukocyte esterase ([1]; Day 6): Negative | Nitrite ([1]; Day 6): Negative | Occult Blood ([1]; Day 6): Negative | Protein, Urine ([1]; Day 6): Negative | patient's SGOT values ([1]; summary in words): drastic reduction | patient's SGPT values ([1]; summary in words): drastic reduction | IC50 [2]: 25 µM | CC50 [3]: 100 µM | MTC (minimum cytotoxic drug concentration) [4]: > 2000 µg/mL | IC50 [5]: > 100 µM | Hepatitis C by PCR log 10 ([6]; Day 3): 6.2 | Hepatitis C RNA ultraquant ([6]; Day 3): 1,500,900 copies/mL | Hepatitis C by PCR log 10 ([6]; Day 6): 5.5 | Hepatitis C RNA ultraquant ([6]; Day 6): 340,540 copies/mL | Hepatitis C by PCR log 10 ([6]; Day 9): 4.9 | Hepatitis C RNA ultraquant ([6]; Day 9): 78,592 copies/mL | patient's hepatitis C PCR values ([6]; summary in words, Day 0 to Day 9): drastic reduction | CC50 at 7 days [7]: > 100 µM | ID50 ([8]; BVDV plaque formation in MDBK, table footnote, unit from the table's concentration head): 631.39 µg/mL (≈ 1090 µM) | Number of plaques ([8]; naringin 31.25 μg/mL): 65 and 75 and 60 | Number of plaques ([8]; naringin 62.50 μg/mL): 57 and 65 | Number of plaques ([8]; naringin 125.00 μg/mL): 52 and 65 and 61 | Number of plaques ([8]; naringin 250.00 μg/mL): 50 and 58 and 52 | Number of plaques ([8]; naringin 500.00 μg/mL): 32 and 45 and 42 | Number of plaques ([8]; naringin 1000.00 μg/mL): 22 and 25 and 14 | Number of plaques ([8]; naringin 1500.00 μg/mL): 8 and 11 | Number of plaques ([8]; naringin 2000.00 μg/mL): 4 and 3 | % Reduction ([8]; naringin 31.25 μg/mL): 2.39% | % Reduction ([8]; naringin 62.50 μg/mL): 12.64% | % Reduction ([8]; naringin 125.00 μg/mL): 13.12% | % Reduction ([8]; naringin 250.00 μg/mL): 21.91% | % Reduction ([8]; naringin 500.00 μg/mL): 41.92% | % Reduction ([8]; naringin 1000.00 μg/mL): 70.22% | % Reduction ([8]; naringin 1500.00 μg/mL): 86.82% | % Reduction ([8]; naringin 2000.00 μg/mL): 95.11% | IC50 ([9]; D2, naringin solubilised in 35% EtOH): 86.2 µM | IC50 ([9]; D2, naringin solubilised in 95% EtOH): > 100 µM
